logP data for 22 compounds are collected here from the SangsterLogP compilation.

Structures are written as SMILES.

The compound `Brc1cc2ccc3cccc4ccc(c1)c2c34` gave a lipophilicity (logP) of 5.8.

Compound `COc1c2ccccc2cc2ccccc12` came in with a logP of 4.36.

For the compound `CC(=O)c1cc2ccc3cccc4ccc(c1)c2c34`, the logP came out at 4.29.

The compound `CC(=O)c1c2ccccc2cc2ccccc12` had a logP of 3.6.

In turn, `O=C1c2ccccc2C(=O)c2ccccc21` gave a log partition coefficient (logP) of 3.28.

Compound `CC(=O)c1ccc2ccc3cccc4ccc1c2c34` registered a logP of 4.18.

`COC(=O)c1ccc2ccc3cccc4ccc1c2c34` showed a log partition coefficient (logP) of 4.73.

The compound `Brc1cc(Br)c2ccc3cccc4ccc1c2c43` returned a logP of 6.85.

In the case of `O=Cc1c2ccccc2cc2ccccc12`, the logP was 3.77.

As for `COC(=O)c1cc2ccc3cccc4ccc(c1)c2c34`, the log partition coefficient (logP) amounted to 4.85.

In the case of `N#Cc1c2ccccc2cc2ccccc12`, the logP came to 3.98.

Turning to `NC(=O)c1c2ccccc2cc2ccccc12`, the logP was 2.23.

With `Brc1ccc2ccc3cccc4ccc1c2c34`, the lipophilicity (logP) is 5.81.

Turning to `Clc1c2ccccc2cc2ccccc12`, the log partition coefficient (logP) is 5.27.

`Brc1c2ccccc2cc2ccccc12` had a logP of 5.37.

The compound `CC(=O)c1cc2cccc3ccc4cccc1c4c32` yielded a logP of 4.16.

Regarding `Brc1cc2cccc3ccc4cccc1c4c32`, the log partition coefficient (logP) worked out at 5.84.

With `Brc1ccc2ccc3c(Br)ccc4ccc1c2c43`, the lipophilicity (logP) turned out to be 6.69.

Compound `Brc1ccc2ccc3ccc(Br)c4ccc1c2c34` returned a logP of 6.73.

Compound `O=Cc1ccc2ccc3cccc4ccc1c2c34` returned a log partition coefficient (logP) of 4.23.

On to `COC(=O)c1c2ccccc2cc2ccccc12`, for which the logP came to 3.83.

Compound `Brc1c2ccccc2c(Br)c2ccccc12` displayed a logP of 6.29.
